What all share (assay type): nucleic-acid assay
For experiment [1], the system named is Nucleic Acid. Description: DNA hybridizing activity at single stranded DNA assessed as thermal stability of duplexes formed between compound and complimentary ssDNA by measuring melting temperature at 4 uM in presence of 10 mM pH 7.2 sodium phosphate buffer containing 100 mM NaCl by UV based melting experiment.
For experiment [2], the system named is Nucleic Acid. Description: DNA hybridizing activity at single stranded RNA assessed as thermal stability of duplexes formed between compound and complimentary ssRNA by measuring melting temperature at 4 uM in presence of 10 mM pH 7.2 sodium phosphate buffer containing 100 mM NaCl by UV based melting experiment.
Experiment [3] relates to Nucleic Acid. Description: DNA hybridizing activity at 22 bp double stranded DNA assessed as thermal stability of duplexes formed between compound and complimentary dsDNA by measuring melting temperature at 1.5 uM in presence of 7 mM pH 5.5 sodium phosphate buffer containing 140 mM K, 10 mM MgCl2 by UV based melting experiment.
The subject of experiment [4] is Nucleic Acid. Description: DNA hybridizing activity at single stranded RNA assessed as thermal stability of duplexes formed between compound and complimentary ssRNA by measuring change in melting temperature at 4 uM in presence of 10 mM pH 7.2 sodium phosphate buffer containing 100 mM NaCl by UV based melting experiment relative to untreated control.
Experiment [5] concerns Nucleic Acid. Nature of the experiment: DNA hybridizing activity at single stranded DNA assessed as thermal stability of duplexes formed between compound and complimentary ssDNA by measuring change in melting temperature at 4 uM in presence of 10 mM pH 7.2 sodium phosphate buffer containing 100 mM NaCl by UV based melting experiment relative to untreated control.
The test system of experiment [6] is Nucleic Acid. Nature of the experiment: DNA hybridizing activity at 22 bp double stranded DNA assessed as thermal stability of duplexes formed between compound and complimentary dsDNA by measuring change in melting temperature at 1.5 uM in presence of 7 mM pH 5.5 sodium phosphate buffer containing 140 mM K, 10 mM MgCl2 by UV based melting experiment.

The Tm is the temperature at the midpoint of the melting transition. On to `Cc1cn([C@H]2C[C@H](OP(=O)(O)O)[C@@H](COP(=O)(O)O[C@H]3C[C@H](n4ccc(N)nc4=O)O[C@@H]3COP(=O)(O)O[C@H]3C[C@H](n4ccc(N)nc4=O)O[C@@H]3COP(=O)(O)O[C@H]3C[C@H](n4cc(C)c(=O)[nH]c4=O)O[C@@H]3COP(=O)(O)O[C@H]3C[C@H](n4cc(C)c(=O)[nH]c4=O)O[C@@H]3COP(=O)(O)O[C@H]3C[C@H](n4cc(C)c(=O)[nH]c4=O)O[C@@H]3COP(=O)(O)O[C@H]3C[C@H](n4cc(C)c(=O)[nH]c4=O)O[C@@H]3COP(=O)(O)O[C@H]3C[C@H](n4cc(C)c(=O)[nH]c4=O)O[C@@H]3COP(=O)(O)O[C@H]3C[C@H](n4cc(C)c(=O)[nH]c4=O)O[C@@H]3COP(=O)(O)O[C@H]3C[C@H](n4ccc(N)nc4=O)O[C@@H]3COP(=O)(O)O[C@H]3C[C@H](n4ccc(N)nc4=O)O[C@@H]3COP(=O)(O)O[C@H]3C[C@H](n4ccc(N)nc4=O)O[C@@H]3CO)O2)c(=O)[nH]c1=O`, for which the results for the Tm in the experiment with Nucleic Acid [1], with Nucleic Acid [2] and with Nucleic Acid [3] were 44 °C, 48 °C and 29 °C, respectively.

As usually defined, the ΔTm is the change in melting temperature against a reference sample. `Cc1cn([C@H]2C[C@H](OP(=O)(O)OC[C@H]3O[C@@H](n4cc(C)c(=O)[nH]c4=O)C[C@@H]3OP(=O)(O)OC[C@H]3O[C@@H](n4cc(C)c(=O)[nH]c4=O)C[C@@H]3O[P@](=O)(OC[C@H]3O[C@@H](n4cc(C)c(=O)[nH]c4=O)C[C@@H]3OP(=O)(O)OC[C@H]3O[C@@H](n4cc(C)c(=O)[nH]c4=O)C[C@@H]3OP(=O)(O)OC[C@H]3O[C@@H](n4cc(C)c(=O)[nH]c4=O)C[C@@H]3OP(=O)(O)OC[C@H]3O[C@@H](n4ccc(N)nc4=O)C[C@@H]3OP(=O)(O)OC[C@H]3O[C@@H](n4ccc(N)nc4=O)C[C@@H]3OP(=O)(O)OC[C@H]3O[C@@H](n4ccc(N)nc4=O)C[C@@H]3OP(=O)(O)O)SCCN3CCNCC3)[C@@H](COP(=O)(O)O[C@H]3C[C@H](n4ccc(N)nc4=O)O[C@@H]3COP(=O)(O)O[C@H]3C[C@H](n4ccc(N)nc4=O)O[C@@H]3COP(=O)(O)O[C@H]3C[C@H](n4ccc(N)nc4=O)O[C@@H]3CO)O2)c(=O)[nH]c1=O`: the ΔTm in the experiment with Nucleic Acid [4], in the experiment on Nucleic Acid [5] and with Nucleic Acid [6] was -2 °C each time. In addition, the Tm in the experiment with Nucleic Acid [1] is 40 °C; in the experiment on Nucleic Acid [2], 44 °C; with Nucleic Acid [3], 24 °C.

`Cc1cn([C@H]2C[C@H](OP(=O)(O)OC[C@H]3O[C@@H](n4cc(C)c(=O)[nH]c4=O)C[C@@H]3OP(=O)(O)OC[C@H]3O[C@@H](n4cc(C)c(=O)[nH]c4=O)C[C@@H]3O[P@@](=O)(OC[C@H]3O[C@@H](n4cc(C)c(=O)[nH]c4=O)C[C@@H]3OP(=O)(O)OC[C@H]3O[C@@H](n4cc(C)c(=O)[nH]c4=O)C[C@@H]3OP(=O)(O)OC[C@H]3O[C@@H](n4cc(C)c(=O)[nH]c4=O)C[C@@H]3OP(=O)(O)OC[C@H]3O[C@@H](n4ccc(N)nc4=O)C[C@@H]3OP(=O)(O)OC[C@H]3O[C@@H](n4ccc(N)nc4=O)C[C@@H]3OP(=O)(O)OC[C@H]3O[C@@H](n4ccc(N)nc4=O)C[C@@H]3OP(=O)(O)O)SCCNCCCN)[C@@H](COP(=O)(O)O[C@H]3C[C@H](n4ccc(N)nc4=O)O[C@@H]3COP(=O)(O)O[C@H]3C[C@H](n4ccc(N)nc4=O)O[C@@H]3COP(=O)(O)O[C@H]3C[C@H](n4ccc(N)nc4=O)O[C@@H]3CO)O2)c(=O)[nH]c1=O`: the figures for the ΔTm in the experiment with Nucleic Acid [4], with Nucleic Acid [5] and in the experiment on Nucleic Acid [6] were 0 °C, 3 °C and 6 °C, respectively. Moreover, the Tm in the experiment on Nucleic Acid [1] worked out at 45 °C; in the experiment with Nucleic Acid [2] it was 46 °C; in the experiment on Nucleic Acid [3], 31 °C.

As to `Cc1cn([C@H]2C[C@H](OP(=O)(O)OC[C@H]3O[C@@H](n4cc(C)c(=O)[nH]c4=O)C[C@@H]3OP(=O)(O)OC[C@H]3O[C@@H](n4cc(C)c(=O)[nH]c4=O)C[C@@H]3O[P@](=O)(S)OC[C@H]3O[C@@H](n4cc(C)c(=O)[nH]c4=O)C[C@@H]3OP(=O)(O)OC[C@H]3O[C@@H](n4cc(C)c(=O)[nH]c4=O)C[C@@H]3OP(=O)(O)OC[C@H]3O[C@@H](n4cc(C)c(=O)[nH]c4=O)C[C@@H]3OP(=O)(O)OC[C@H]3O[C@@H](n4ccc(N)nc4=O)C[C@@H]3OP(=O)(O)OC[C@H]3O[C@@H](n4ccc(N)nc4=O)C[C@@H]3OP(=O)(O)OC[C@H]3O[C@@H](n4ccc(N)nc4=O)C[C@@H]3OP(=O)(O)O)[C@@H](COP(=O)(O)O[C@H]3C[C@H](n4ccc(N)nc4=O)O[C@@H]3COP(=O)(O)O[C@H]3C[C@H](n4ccc(N)nc4=O)O[C@@H]3COP(=O)(O)O[C@H]3C[C@H](n4ccc(N)nc4=O)O[C@@H]3CO)O2)c(=O)[nH]c1=O`, the Tm with Nucleic Acid [1] turned out to be 42 °C; in the experiment on Nucleic Acid [2], 46 °C; in the experiment with Nucleic Acid [3] it was 25 °C.

In the case of `Cc1cn([C@H]2C[C@H](OP(=O)(O)OC[C@H]3O[C@@H](n4cc(C)c(=O)[nH]c4=O)C[C@@H]3OP(=O)(O)OC[C@H]3O[C@@H](n4cc(C)c(=O)[nH]c4=O)C[C@@H]3O[P@@](=O)(S)OC[C@H]3O[C@@H](n4cc(C)c(=O)[nH]c4=O)C[C@@H]3OP(=O)(O)OC[C@H]3O[C@@H](n4cc(C)c(=O)[nH]c4=O)C[C@@H]3OP(=O)(O)OC[C@H]3O[C@@H](n4cc(C)c(=O)[nH]c4=O)C[C@@H]3OP(=O)(O)OC[C@H]3O[C@@H](n4ccc(N)nc4=O)C[C@@H]3OP(=O)(O)OC[C@H]3O[C@@H](n4ccc(N)nc4=O)C[C@@H]3OP(=O)(O)OC[C@H]3O[C@@H](n4ccc(N)nc4=O)C[C@@H]3OP(=O)(O)O)[C@@H](COP(=O)(O)O[C@H]3C[C@H](n4ccc(N)nc4=O)O[C@@H]3COP(=O)(O)O[C@H]3C[C@H](n4ccc(N)nc4=O)O[C@@H]3COP(=O)(O)O[C@H]3C[C@H](n4ccc(N)nc4=O)O[C@@H]3CO)O2)c(=O)[nH]c1=O`, the figures for the Tm in the experiment with Nucleic Acid [1], in the experiment with Nucleic Acid [2] and in the experiment with Nucleic Acid [3] were 42 °C, 46 °C and 26 °C, respectively.

As for `Cc1cn([C@H]2C[C@H](OP(=O)(O)OC[C@H]3O[C@@H](n4cc(C)c(=O)[nH]c4=O)C[C@@H]3OP(=O)(O)OC[C@H]3O[C@@H](n4cc(C)c(=O)[nH]c4=O)C[C@@H]3O[P@](=O)(OC[C@H]3O[C@@H](n4cc(C)c(=O)[nH]c4=O)C[C@@H]3OP(=O)(O)OC[C@H]3O[C@@H](n4cc(C)c(=O)[nH]c4=O)C[C@@H]3OP(=O)(O)OC[C@H]3O[C@@H](n4cc(C)c(=O)[nH]c4=O)C[C@@H]3OP(=O)(O)OC[C@H]3O[C@@H](n4ccc(N)nc4=O)C[C@@H]3OP(=O)(O)OC[C@H]3O[C@@H](n4ccc(N)nc4=O)C[C@@H]3OP(=O)(O)OC[C@H]3O[C@@H](n4ccc(N)nc4=O)C[C@@H]3OP(=O)(O)O)SCCCN)[C@@H](COP(=O)(O)O[C@H]3C[C@H](n4ccc(N)nc4=O)O[C@@H]3COP(=O)(O)O[C@H]3C[C@H](n4ccc(N)nc4=O)O[C@@H]3COP(=O)(O)O[C@H]3C[C@H](n4ccc(N)nc4=O)O[C@@H]3CO)O2)c(=O)[nH]c1=O`, the ΔTm is -3 °C with Nucleic Acid [4], -2 °C in the experiment on Nucleic Acid [5] and -2 °C in the experiment on Nucleic Acid [6]. In addition, the Tm with Nucleic Acid [1] was found to be 40 °C; in the experiment on Nucleic Acid [2], 43 °C; with Nucleic Acid [3], 24 °C.

`Cc1cn([C@H]2C[C@H](OP(=O)(O)OC[C@H]3O[C@@H](n4cc(C)c(=O)[nH]c4=O)C[C@@H]3OP(=O)(O)OC[C@H]3O[C@@H](n4cc(C)c(=O)[nH]c4=O)C[C@@H]3O[P@](=O)(OC[C@H]3O[C@@H](n4cc(C)c(=O)[nH]c4=O)C[C@@H]3OP(=O)(O)OC[C@H]3O[C@@H](n4cc(C)c(=O)[nH]c4=O)C[C@@H]3OP(=O)(O)OC[C@H]3O[C@@H](n4cc(C)c(=O)[nH]c4=O)C[C@@H]3OP(=O)(O)OC[C@H]3O[C@@H](n4ccc(N)nc4=O)C[C@@H]3OP(=O)(O)OC[C@H]3O[C@@H](n4ccc(N)nc4=O)C[C@@H]3OP(=O)(O)OC[C@H]3O[C@@H](n4ccc(N)nc4=O)C[C@@H]3OP(=O)(O)O)SCCCCCCN)[C@@H](COP(=O)(O)O[C@H]3C[C@H](n4ccc(N)nc4=O)O[C@@H]3COP(=O)(O)O[C@H]3C[C@H](n4ccc(N)nc4=O)O[C@@H]3COP(=O)(O)O[C@H]3C[C@H](n4ccc(N)nc4=O)O[C@@H]3CO)O2)c(=O)[nH]c1=O`: the ΔTm with Nucleic Acid [4] was -5 °C; in the experiment with Nucleic Acid [5] it was -5 °C; in the experiment on Nucleic Acid [6], -3 °C. The figures for the Tm with Nucleic Acid [1], in the experiment with Nucleic Acid [2] and in the experiment on Nucleic Acid [3] were 37 °C, 41 °C and 23 °C, respectively.

`Cc1cn([C@H]2C[C@H](OP(=O)(O)OC[C@H]3O[C@@H](n4cc(C)c(=O)[nH]c4=O)C[C@@H]3OP(=O)(O)OC[C@H]3O[C@@H](n4cc(C)c(=O)[nH]c4=O)C[C@@H]3O[P@](=O)(OC[C@H]3O[C@@H](n4cc(C)c(=O)[nH]c4=O)C[C@@H]3OP(=O)(O)OC[C@H]3O[C@@H](n4cc(C)c(=O)[nH]c4=O)C[C@@H]3OP(=O)(O)OC[C@H]3O[C@@H](n4cc(C)c(=O)[nH]c4=O)C[C@@H]3OP(=O)(O)OC[C@H]3O[C@@H](n4ccc(N)nc4=O)C[C@@H]3OP(=O)(O)OC[C@H]3O[C@@H](n4ccc(N)nc4=O)C[C@@H]3OP(=O)(O)OC[C@H]3O[C@@H](n4ccc(N)nc4=O)C[C@@H]3OP(=O)(O)O)SCCN)[C@@H](COP(=O)(O)O[C@H]3C[C@H](n4ccc(N)nc4=O)O[C@@H]3COP(=O)(O)O[C@H]3C[C@H](n4ccc(N)nc4=O)O[C@@H]3COP(=O)(O)O[C@H]3C[C@H](n4ccc(N)nc4=O)O[C@@H]3CO)O2)c(=O)[nH]c1=O`: the ΔTm in the experiment with Nucleic Acid [4] is -3 °C; with Nucleic Acid [5], -1 °C; in the experiment on Nucleic Acid [6] it was -2 °C. In addition, the Tm in the experiment on Nucleic Acid [1] stood at 41 °C; with Nucleic Acid [2] it was 43 °C; with Nucleic Acid [3], 24 °C.

The values are drawn from ChEMBL document CHEMBL2057188, “Hybridizing ability and nuclease resistance profile of backbone modified cationic phosphorothioate oligonucleotides” (Bioorg Med Chem, 2012).
